Results taken from US20240279220A1, “INDOLE COMPOUNDS AND METHODS OF USE” (Genzyme Corporation, priority 2021, published 2024).

Legend:
CFTR = molecular target: T1, CFTR (Homo sapiens, UniProt P13569, DEL508-508); assay: TECC24 recording of CFTR-mediated transepithelial chloride transport in ΔF508 homozygous CF-HBE cells; format: cell-based; settings: 10 μM test agent, 48 hours incubation, AUC of forskolin-stimulated IEQ divided by vehicle AUC, primary CF-HBE cells
T1 construct: Primary human bronchial epithelial cells from a ΔF508 homozygous CF donor; host or cells: primary human bronchial epithelial cells (CF-HBE), ΔF508 homozygous donor
T1 sequence (P13569 with tags, fused parts or gaps DEL508-508): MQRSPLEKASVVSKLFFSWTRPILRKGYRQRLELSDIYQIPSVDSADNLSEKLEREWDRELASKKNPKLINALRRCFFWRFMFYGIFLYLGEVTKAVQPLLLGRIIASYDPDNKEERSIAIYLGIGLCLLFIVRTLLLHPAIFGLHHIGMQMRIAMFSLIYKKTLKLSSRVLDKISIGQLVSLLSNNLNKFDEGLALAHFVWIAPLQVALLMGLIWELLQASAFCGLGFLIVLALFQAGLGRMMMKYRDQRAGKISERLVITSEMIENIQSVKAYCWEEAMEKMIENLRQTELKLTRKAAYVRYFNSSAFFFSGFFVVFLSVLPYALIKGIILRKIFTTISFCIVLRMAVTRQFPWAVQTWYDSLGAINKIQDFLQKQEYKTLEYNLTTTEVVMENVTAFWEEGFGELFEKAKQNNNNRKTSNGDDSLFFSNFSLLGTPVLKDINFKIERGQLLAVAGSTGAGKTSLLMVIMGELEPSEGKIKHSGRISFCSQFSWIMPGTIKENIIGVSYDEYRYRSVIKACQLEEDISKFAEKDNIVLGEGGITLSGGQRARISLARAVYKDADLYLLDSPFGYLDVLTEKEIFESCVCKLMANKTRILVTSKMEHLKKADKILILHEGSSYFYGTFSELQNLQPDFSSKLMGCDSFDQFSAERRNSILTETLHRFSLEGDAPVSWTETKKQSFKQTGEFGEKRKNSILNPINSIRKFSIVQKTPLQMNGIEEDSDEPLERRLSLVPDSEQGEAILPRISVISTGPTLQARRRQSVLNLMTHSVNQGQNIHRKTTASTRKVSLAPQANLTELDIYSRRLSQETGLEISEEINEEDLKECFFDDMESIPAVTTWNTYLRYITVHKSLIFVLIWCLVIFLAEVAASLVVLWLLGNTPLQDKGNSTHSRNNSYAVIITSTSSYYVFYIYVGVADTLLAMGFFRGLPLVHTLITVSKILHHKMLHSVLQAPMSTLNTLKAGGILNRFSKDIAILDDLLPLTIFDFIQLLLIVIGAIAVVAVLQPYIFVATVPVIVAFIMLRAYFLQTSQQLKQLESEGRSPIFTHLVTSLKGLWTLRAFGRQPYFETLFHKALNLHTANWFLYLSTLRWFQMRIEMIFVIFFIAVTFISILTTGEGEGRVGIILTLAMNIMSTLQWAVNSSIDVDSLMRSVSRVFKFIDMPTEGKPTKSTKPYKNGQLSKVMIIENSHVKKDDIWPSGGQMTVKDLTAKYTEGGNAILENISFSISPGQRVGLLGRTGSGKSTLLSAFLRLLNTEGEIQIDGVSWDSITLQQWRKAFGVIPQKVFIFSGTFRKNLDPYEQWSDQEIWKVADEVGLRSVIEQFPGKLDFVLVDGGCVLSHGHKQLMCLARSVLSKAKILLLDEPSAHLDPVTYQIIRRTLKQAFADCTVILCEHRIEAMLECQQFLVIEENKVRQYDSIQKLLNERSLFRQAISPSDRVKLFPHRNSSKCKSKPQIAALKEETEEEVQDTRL
How it was run: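 ΔF508 homozygous primary bronchial epithelia exposed to compound 48 h at 36.5 °C, then transepithelial voltage and resistance recorded in pH 7.4 buffer with benzamil (10 μM), forskolin (10 μM) stimulation and CFTRinh-172 (20 μM) stop. Equivalent Cl⁻ current AUC vs vehicle gives efficacy; EC50 fitted with Hill slope fixed at 1.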

NBD1/3D = assay: Aggregation analysis using differential static light scattering (DSLS), NBD1 thermal stability; format: binding, Human; settings: ΔTagg versus DMSO control; compound at 100 μM
How it was run: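 Thermal stabilisation reported as ΔTagg, i.e. aggregation temperature relative to averaged DMSO wells. Tagg came from the inflection of differential static light scattering imaged 25–70 °C while NBD1 (0.2 mg/ml, Tris pH 7.6 buffer containing ATP, MgCl2, DTT, glycerol) was ramped 1 °C/min.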

SMILES	TECC24 @ 10 μM over DMSO (AUC fold over DMSO) (CFTR)	DSLS NBD1/3D Human Stability delta-T (° C.) @ 100 (μM) (NBD1/3D)
O=C(O)CCc1cccc(C2(c3cnc(-c4cc(Oc5c(F)c(F)c6[nH]ccc6c5F)ccc4F)[nH]3)CCOCC2)c1 [Example 167, 3-(3-(4-(2-(2-fluoro-5-((4,6,7-trifluoro-1H-indol-5-yl)oxy)phenyl)-1H-imidazol-4-yl)tetrahydro-2H-pyran-4-yl)phenyl)propanoic acid]	C (“C” refers to AUC @ 10 uM <= 4)	A (A: T ≥ 10° C.)
O=C(O)CCc1cccc(C2(c3cnc(-c4cc(Oc5c(F)cc6[nH]ccc6c5F)ccc4F)[nH]3)CCN(CC(F)(F)F)CC2)c1 [Example 169, 3-(3-(4-(2-(5-((4,6-difluoro-1H-indol-5-yl)oxy)-2-fluorophenyl)-1H-imidazol-5-yl)-1-(2,2,2-trifluoroethyl)piperidin-4-yl)phenyl)propanoic acid]	C (“C” refers to AUC @ 10 uM <= 4)	B (B: 5-10° C.)
O=C(O)CCc1cccc(C2(c3cnc(-c4cc(Oc5c(F)cc6[nH]ccc6c5CC(F)(F)F)ccc4F)[nH]3)CCS(=O)(=O)CC2)c1 [Example 170, 3-(3-(4-(2-(2-fluoro-5-((6-fluoro-4-(2,2,2-trifluoroethyl)-1H-indol-5-yl)oxy)phenyl)-1H-imidazol-5-yl)-1,1-dioxidotetrahydro-2H-thiopyran-4-yl)phenyl)propanoic acid]	C (“C” refers to AUC @ 10 uM <= 4)	B (B: 5-10° C.)
COCC(COC)(c1cccc(CCC(=O)O)c1)c1cnc(-c2cc(Oc3c(F)cc4[nH]ccc4c3F)ccc2F)[nH]1 [Example 171, 3-(3-(2-(2-(5-((4,6-Difluoro-1H-indol-5-yl)oxy)-2-fluorophenyl)-1H-imidazol-5-yl)-1,3-dimethoxypropan-2-yl)phenyl)propanoic acid]	C (“C” refers to AUC @ 10 uM <= 4)	A (A: T ≥ 10° C.)
CC(O)(c1cccc(CCC(=O)O)c1)c1c[nH]c(-c2cc(C(=O)c3ccc4[nH]ccc4c3)ccc2F)n1 (stereo not shown) [Example 194, 3-(3-(1-(2-(2-fluoro-5-(1H-indole-5-carbonyl)phenyl)-1H-imidazol-4-yl)-1-hydroxyethyl)phenyl) propanoic acid]	C (“C” refers to AUC @ 10 uM <= 4)	B (B: 5-10° C.)
CC(O)(c1cccc(CCC(=O)O)c1)c1cnc(-c2cc(Oc3c(F)c(F)c4[nH]ccc4c3C3CC3)ccc2F)[nH]1 (stereo not shown) [Example 205, 3-(3-(1-(2-(5-((4-cyclopropyl-6,7-difluoro-1H-indol-5-yl)oxy)-2-fluorophenyl)-1H-imidazol-5-yl)-1-hydroxyethyl)phenyl) propanoic acid]	B (“B” refers to AUC @10 uM between 4-12)	B (B: 5-10° C.)
Cc1c(Oc2cc(-c3ncc(C(C)(O)c4cccc(CCC(=O)O)c4)[nH]3)c(F)cc2F)c(F)cc2[nH]ccc12 (stereo not shown) [Example 206, 3-(3-(1-(2-(2,4-difluoro-5-((6-fluoro-4-methyl-1H-indol-5-yl)oxy)phenyl)-1H-imidazol-5-yl)-1-hydroxyethyl)phenyl) propanoic acid]	C (“C” refers to AUC @ 10 uM <= 4)	B (B: 5-10° C.)
CNC(c1cccc(CCC(=O)O)c1)c1cnc(-c2cccc(Oc3c(F)cc4[nH]ccc4c3F)c2)[nH]1 (stereo not shown) [Example 266, 3-(3-((2-(3-((4,6-Difluoro-1H-indol-5-yl)oxy)phenyl)-1H-imidazol-5-yl)(methylamino)methyl)phenyl)propanoic acid]	C (“C” refers to AUC @ 10 uM <= 4)	A (A: T ≥ 10° C.)
